# Results taken from ChEMBL document CHEMBL3988442, “University of Dundee, Small-Polar-MMV Screening Library” (2021).
# Legend:
# [1] = microbe, parasite or virus in culture; details: Mycobacterium tuberculosis, 96 h, read-out: pIC50 (converted)
# [2] = microbe, parasite or virus in culture; details: Mycobacterium tuberculosis, 72 h, read-out: pIC50 (converted)
Compound,IC50 [1] [µM],IC50 [2] [µM]
COc1ccc(CNC(=O)CNC2CCCSC2)cc1 (stereo not given),37.4,> 501
COc1ccc(CCN)c(OC)c1OC,55.6,36.1
O=C(Cn1cc(Br)cn1)Nc1ccc2c(c1)OCCO2,247,220
COc1cccc(C(CO)NC(=O)Cc2ccc(F)c(Br)c2)c1 (stereo not given),> 50.1,> 50.1
C[S+]([O-])c1nncn1CCCOc1cccc(Cl)c1 (stereo not given),> 501,341
OCC1CCCN1c1cc(N2CCC(OC3CCCC3)CC2)ncn1 (stereo not given),13.8,15.5
CC(=O)N1CCCC1c1nnc2n1CCCCC2 (stereo not given),> 50.1,> 50.1
CC(=O)N1CCCC1c1cccc(Cc2ccccc2F)n1 (stereo not given),39,29.2
O=C1NC2(CCCN(C(=O)CCn3cccn3)C2)Oc2ccccc21 (stereo not given),> 50.1,39.4
O=C(CCN1CCCC1)N1CCc2ccccc21,> 501,391
O=C(NCC(O)c1ccc(F)cc1)Nc1cnns1 (stereo not given),> 501,> 501
Cc1cc(S(=O)(=O)NC2CCS(=O)(=O)C2)c(C)s1 (stereo not given),310,97.4
CCOC(=O)C(C)Nc1ccc2oc(=O)[nH]c2c1 (stereo not given),292,311
CC(C)Cc1noc(CNc2cc3c(cc2Cl)OCCCO3)n1,27.1,> 50.1
CC(CNC(=O)c1cnccn1)Oc1cccc(Br)c1 (stereo not given),> 50.1,0.211
Cc1cnc(N2CCCC(c3ccccc3)C2)nc1-c1ncnn1C (stereo not given),> 50.1,> 50.1
Cn1nnc(NCc2ccc(-c3ccc(Br)cc3)o2)n1,11.9,25.3
CC1CN(CCC(=O)NCc2cccs2)CCCO1 (stereo not given),> 501,> 501
Cc1nc(NCCSc2cnn[nH]2)c2c(C)noc2n1,> 50.1,> 50.1
COCCC1CN(C(=O)c2ccc(C)c(F)c2)CCO1 (stereo not given),234,257
N#Cc1ccc(NCc2cccc(COC3CCOCC3)c2)nc1,> 50.1,> 50.1
CC(C)c1noc(CN2CCN(C(=O)c3ccc(F)cc3)CC2)n1,> 50.1,> 50.1
COCc1nn(CCC2CCCC2)c(=O)o1,86.6,68.2
CCN(CC)S(=O)(=O)CC(=O)Nc1ccc(F)c(C)c1,265,252
Cn1nnnc1SCCNCc1ccc(Br)cc1,289,280
CN(C(=O)CN)c1ccc(-c2ccccc2)cc1,260,305
CSCC(CCO)Nc1ncccc1C(F)(F)F (stereo not given),> 501,253

Compound,IC50 [1] [µM],IC50 [2] [µM]
CN(C)c1ncnc2c1CCN(c1cccc(F)c1)CC2,> 50.1,> 50.1
CCc1ccc(CN(CCCn2ccnc2)Cc2ccc(C)s2)o1,36.8,37.5
COc1ccnc(NCCS(=O)(=O)c2ccccc2)n1,> 501,> 501
COC(=O)CN(C)Cc1cc(Br)cs1,> 50.1,> 50.1
CN(Cc1c(F)cccc1Cl)C(=O)CNC(=O)C1CC1,71,237
CCCc1cc(C(=O)NCC2COCCO2)cs1 (stereo not given),124,> 501
Cc1ccc(N2CCN(c3ccccc3C)CC2C)nn1 (stereo not given),> 50.1,> 50.1
O=C(Cn1ccc2ccccc21)N1CCCC1,162,60
O=C(CC1COCCN1Cc1ccon1)c1cccs1 (stereo not given),> 501,172
COc1cccc2c1OCC(C(=O)N1CCN(C3CCCC3)C(=O)C1)C2 (stereo not given),> 50.1,> 50.1
COc1ccc(NC(=O)COc2ccccc2F)cn1,> 501,213
O=C(NCCn1cccc1)c1[nH]nc2c1CCCC2,> 501,248
COc1ccc(NC(C(N)=O)c2ccc(Br)cc2)cn1 (stereo not given),198,148
O=C(COc1ccc(F)cc1)Nc1ccon1,> 501,186
Cc1cccc(Cl)c1OCCN,> 501,319
C=C(C)COc1ccc(C(=O)NCC[C@@H](C)CO)cc1,283,440
NC(=O)c1ccsc1NC(=O)CCN1CCCC1,248,204
COCC(=O)NCc1noc(-c2cccc(C)c2)n1,160,265
COCCN1CCN(CCS(=O)(=O)C(F)(F)F)CC1,293,131
Cc1nc(COc2ccc(C(=O)OCC#N)cc2)no1,> 501,> 501
C[C@@]1(O)CCN(C(=O)CN)C[C@@H]1Cc1ccccc1,174,219
O=C(NC1CCCc2occc21)c1cccnc1 (stereo not given),79.9,57.8
O=C(OCCNc1ncccn1)c1ccc(Br)s1,29.8,> 50.1
CCCS(=O)(=O)N(C)Cc1ccc(OCC)cn1,280,148
O=C(Cc1ccc2c(c1)OCCO2)N1CCCC(n2ccnc2)C1 (stereo not given),> 50.1,> 50.1
CC(C)(C)c1cnc(CN2CCOCC2C(N)=O)o1 (stereo not given),> 501,158
NCC1CCN(CCc2ccccc2)C1 (stereo not given),213,209

Compound,IC50 [1] [µM],IC50 [2] [µM]
CCC(CNS(=O)(=O)N(C)CC)c1ccccc1 (stereo not given),> 501,249
COc1cccc(CS(=O)(=O)Nc2ccc(C)nc2)c1,> 501,307
CC(C)CCNC(=O)CCn1cc(Br)ccc1=O,105,142
N[C@@H]1C[C@H]1c1ccc2c(c1)OCCO2,196,> 501
O=C(COCC1CC1)Nc1cc(S(=O)(=O)NC2CC2)ccc1F,> 50.1,45.8
COc1ccc(CNc2ccncc2F)cc1C#N,> 501,> 501
CCN1CCC(CNCc2c[nH]nc2C(C)(C)C)C1 (stereo not given),16.4,> 50.1
Cc1ccc(-c2nc(CSc3nnc(N)[nH]3)no2)cc1,80.2,107
Cc1csc(CNC(=O)c2ccco2)n1,> 501,> 501
OCCOCCSc1n[nH]c(-c2cc(F)cc(F)c2)n1,> 501,> 501
CC(C)c1cc(N)[nH]n1,> 501,> 501
O=C(NCCCn1ncc2ccccc21)C1CC1,147,150
CCOc1cccc(CCN)n1,> 501,234
CC1CCN(S(=O)(=O)NC(C)C(C)C)CC1 (stereo not given),> 501,261
CC(C)c1cc(C(=O)N[C@@H]2CCOC[C@H]2O)cs1,> 501,> 501
O=C(Cn1cccn1)NCCc1ccc2c(c1)OCO2,> 501,251
CCCc1ccc2oc(C(=O)N3CCN(CCOC)CC3)c(C)c2c1,4.11,4.94
COCCCOc1ccc2c(c1)OCCO2,109,92.8
Cc1oc(-c2ccc(Cl)cc2)nc1C(=O)NC1=NCCS1,> 50.1,> 50.1
CS(=O)(=O)NC(c1ccc(F)cc1)c1cccnc1 (stereo not given),> 501,338
CC(C)c1nnc(CN2CC(n3cccn3)Cc3ccccc32)o1 (stereo not given),> 50.1,> 50.1
COCc1n[nH]c2c1CN(C(=O)c1ccncc1)C2,> 50.1,29.7
O=C1CCCN1Cc1nnc(SCc2ccc3c(c2)CCC3)o1,46.5,22
NCCNS(=O)(=O)c1ccc(F)c(C(F)(F)F)c1,> 501,476
NCc1ccncc1OCc1ccccc1,> 501,134
COc1cccc(C2=NN=C(NC3CC3)SC2)c1,111,97.4
CC(C)NC(=O)NCC1(N2CCOCC2)CCSC1 (stereo not given),> 501,> 501

Compound,IC50 [1] [µM],IC50 [2] [µM]
N#CCCn1ncc2c(NCc3cccs3)ncnc21,> 501,399
CC(C1CC1)N(C)Cc1nnc(-c2ccc(Br)s2)o1 (stereo not given),42.1,2.95
Cc1ccc2[nH]c(CN)nc2c1C,> 501,246
COc1cc(C(=O)NC[C@@H](O)c2ccc(C)cc2)on1,> 501,488
CCn1ccc(C(=O)N(C)Cc2cccnc2OC)n1,212,> 501
Cc1c(CN2CCSCC2)cccc1NS(C)(=O)=O,> 501,> 501
Cc1cc(OCC(=O)NCc2ccccc2F)no1,118,73.3
Cn1ccsc1=NC(=O)c1ccc(OCC(N)=O)cc1,> 501,> 501
CCc1nc(CCN)cs1,152,113
CCS(=O)(=O)N(C)CCCNc1ccc(Cl)cn1,163,129
O=C(NCC(=O)N1CCc2ccccc2C1)c1cnccn1,> 50.1,> 50.1
COc1c(C)cc(Br)cc1C(=O)Nc1nnn(C)n1,209,206
CCOC(C(=O)N(C)CC(N)=O)c1ccccc1 (stereo not given),> 501,> 501
CCc1nn(C)c(Cl)c1CN1CCN(c2ccc(C(N)=O)cn2)CC1,> 50.1,> 50.1
Cc1ccc(C(=O)N2CCCC(Nc3ccc(F)cc3)C2)cc1 (stereo not given),20.9,18.7
CCNC(=O)CN(CC)S(=O)(=O)c1ccc(C)cc1,> 501,295
CCc1nnc(CN2CCOC3(CCCC3)C2)o1,> 501,> 501
CSCC(C)(O)CNc1nnnn1-c1ccccc1 (stereo not given),290,306
O=C(CNc1ccc(Br)cc1)NCc1ncc[nH]1,> 501,228
CCCSc1ccc(NC(=O)NCCN)cc1,233,187
NCC(=O)N1CCCC(COc2ccc(F)cc2)C1 (stereo not given),> 501,220
NC(=O)c1ccc(-c2nc(C3CCCC3)no2)o1,228,338
COc1ccc(C(O)CNC(=O)Nc2nncs2)cc1 (stereo not given),380,195
CC(C)Oc1ccc(C(CN)N(C)C)cc1 (stereo not given),225,133
